Measured values: patent US8207178B2 (priority 2007, dated 2012)

What was measured:
Assay in all cases: microbe, parasite or virus in culture
Format in all cases: cell-based, human immunodeficiency virus type 1 (HIV-1)
HIV-1 K103N-L100I mutant = details: Human immunodeficiency virus 1, HeLa, read-out: EC50 mutant K103N-L100I, mutant K103N-L100I
HIV-1 K103N mutant = details: Human immunodeficiency virus 1, HeLa, read-out: EC50 mutant K103N
wild type HIV-1 = details: Human immunodeficiency virus 1, Hela-JC53
HIV-1 K103N-Y181C mutant = details: Human immunodeficiency virus 1, HeLa, read-out: EC50 mutant K103N-Y181C
HIV-1 Y188L mutant = details: Human immunodeficiency virus 1, HeLa, read-out: EC50 mutant Y188L

SMILES | EC50 (HIV-1 K103N-L100I mutant) | EC50 (HIV-1 K103N mutant) | EC50 (wild type HIV-1) | EC50 (HIV-1 K103N-Y181C mutant) | EC50 (HIV-1 Y188L mutant)
Cc1cc(-c2ccc(C(N)=O)cn2)cc(C)c1Oc1nc(Nc2ccc(C#N)cc2)nc2ccn(C)c12 [Example 61, 6-(4-(2-(4-Cyanophenylamino)-5-methyl-5H-pyrrolo[3,2-d]pyrimidin-4-yloxy)-3,5-dimethyl-phenyl)nicotinamide] | 1 to 10 nM | 1 to 10 nM | 1 to 10 nM | > 10 nM | 1 to 10 nM
Cc1cc(-c2ccc(C(N)=O)cc2)cc(C)c1Oc1nc(Nc2ccc(C#N)cc2)nc2ccn(C)c12 [Example 78, 4′-(2-(4-cyanophenylamino)-5-methyl-5H-pyrrolo[3,2-d]pyrimidin-4-yloxy)-3′,5′-dimethylbiphenyl-4-carboxamide] | 1 to 10 nM | 1 to 10 nM | 1 to 10 nM | 1 to 10 nM | 1 to 10 nM
Cc1cc(-c2ccc(C(N)=O)cc2)cc(C)c1Oc1nc(Nc2ccc(C#N)cc2)nc2ncn(C)c12 [Example 111, 4′-(2-(4-Cyanophenylamino)-7-methyl-7H-purin-6-yloxy)-3′,5′-dimethylbiphenyl-4-carboxamide] | 1 to 10 nM | 1 to 10 nM | 1 to 10 nM | > 10 nM | > 10 nM
Cc1cc(-c2ccc(C(N)=O)cn2)cc(C)c1Oc1nc(Nc2ccc(C#N)cc2)nc2ncn(C)c12 [Example 123, 6-(4-(2-(4-cyanophenylamino)-7-methyl-7H-purin-6-yloxy)-3,5-dimethylphenyl)nicotinamide] | > 10 nM | 1 to 10 nM | 1 to 10 nM | > 10 nM | 1 to 10 nM
